Assays:
human Ox2R = molecular target: T1, human Ox2R (Homo sapiens, UniProt O43614); experiment: Measurement of OX2R agonist activity (cell-based calcium release assay); conditions: hOx2R-CHO Flp-In cells, n≥2 tests; for EC50: intracellular calcium, read-out: EC50; for Emax: normalized to assay buffer (0%) and 10 μM Danavorexton (100%), read-out: Emax (%)
T1 construct: The gene encoding hOx2R was subcloned into the expression plasmid pcDNA5/FRT/TO; expressed in transfected cells; host or cells: CHO Flp-In cells (pcDNA5/FRT/TO with pOG44 Flp recombinase vector, hygromycin B selection)
T1 sequence (O43614 1-444): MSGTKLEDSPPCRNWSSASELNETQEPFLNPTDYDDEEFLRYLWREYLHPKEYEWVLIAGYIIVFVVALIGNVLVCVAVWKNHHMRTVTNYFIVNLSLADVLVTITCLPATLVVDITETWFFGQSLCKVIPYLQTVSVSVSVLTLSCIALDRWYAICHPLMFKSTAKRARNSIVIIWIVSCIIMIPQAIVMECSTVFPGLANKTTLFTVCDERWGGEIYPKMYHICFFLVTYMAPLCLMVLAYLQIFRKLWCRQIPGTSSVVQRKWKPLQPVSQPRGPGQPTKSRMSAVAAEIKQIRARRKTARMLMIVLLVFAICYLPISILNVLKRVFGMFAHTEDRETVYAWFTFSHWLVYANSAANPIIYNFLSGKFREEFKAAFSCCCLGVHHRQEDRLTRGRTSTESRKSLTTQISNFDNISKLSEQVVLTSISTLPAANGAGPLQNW
Summary of the method: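 CHO Flp-In cells stably expressing human Ox2R, dye-loaded 1 h at 37 °C in HBSS/20 mM HEPES pH 7.4 with 2.5 mM probenecid and 10 mM CaCl2, then stimulated with compound.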

P-gp (MDR1) = molecular target: T2, P-gp (MDR1) (Homo sapiens, UniProt P08183); experiment: MDR1-MDCKII assay (bidirectional transport); type: in vitro ADME; conditions: MDCK-MDR1, pH 7.4, test compound 0.5 μM, MDR1-MDCKII monolayer; for efflux ratio at 0.5 μM: read-out: ER (efflux ratio); for Papp A→B at 0.5 μM: apical to basolateral
T2 construct: host or cells: MDCKII (canine kidney) cells transfected with human MDR1
T2 sequence (P08183 whole entry): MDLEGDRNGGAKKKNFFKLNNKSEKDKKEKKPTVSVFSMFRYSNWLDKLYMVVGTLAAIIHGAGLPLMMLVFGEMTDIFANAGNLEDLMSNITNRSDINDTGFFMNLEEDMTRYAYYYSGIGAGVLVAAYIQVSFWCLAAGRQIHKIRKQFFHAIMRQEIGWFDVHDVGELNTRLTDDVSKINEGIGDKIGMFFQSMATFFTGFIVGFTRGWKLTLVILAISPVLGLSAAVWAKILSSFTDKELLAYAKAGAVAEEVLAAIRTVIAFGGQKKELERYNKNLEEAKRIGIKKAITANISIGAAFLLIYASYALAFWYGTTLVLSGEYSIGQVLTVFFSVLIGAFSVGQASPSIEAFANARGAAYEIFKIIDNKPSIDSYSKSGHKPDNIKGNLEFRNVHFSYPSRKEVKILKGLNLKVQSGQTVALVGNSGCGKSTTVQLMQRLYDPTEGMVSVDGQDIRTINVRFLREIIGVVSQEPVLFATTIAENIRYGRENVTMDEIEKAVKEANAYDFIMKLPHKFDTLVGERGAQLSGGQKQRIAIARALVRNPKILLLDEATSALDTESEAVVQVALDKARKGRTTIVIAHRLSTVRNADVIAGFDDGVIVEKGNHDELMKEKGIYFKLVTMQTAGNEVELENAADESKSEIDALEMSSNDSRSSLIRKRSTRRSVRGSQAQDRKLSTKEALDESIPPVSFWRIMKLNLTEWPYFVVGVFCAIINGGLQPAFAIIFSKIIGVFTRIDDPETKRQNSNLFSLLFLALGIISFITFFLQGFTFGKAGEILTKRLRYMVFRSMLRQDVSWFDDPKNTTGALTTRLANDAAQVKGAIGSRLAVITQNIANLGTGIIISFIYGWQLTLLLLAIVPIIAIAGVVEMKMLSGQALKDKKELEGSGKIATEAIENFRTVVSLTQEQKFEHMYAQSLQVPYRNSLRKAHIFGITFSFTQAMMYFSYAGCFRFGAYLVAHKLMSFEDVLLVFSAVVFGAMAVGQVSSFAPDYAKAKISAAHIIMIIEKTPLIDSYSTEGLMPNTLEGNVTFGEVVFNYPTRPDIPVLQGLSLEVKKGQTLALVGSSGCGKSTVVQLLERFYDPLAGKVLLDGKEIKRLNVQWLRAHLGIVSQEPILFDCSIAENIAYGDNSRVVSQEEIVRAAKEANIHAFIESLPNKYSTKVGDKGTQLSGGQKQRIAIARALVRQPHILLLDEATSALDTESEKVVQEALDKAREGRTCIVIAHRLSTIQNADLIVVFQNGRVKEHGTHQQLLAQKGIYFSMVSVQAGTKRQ
Method: Bidirectional transport in MDCKII cells transfected with human MDR1 were assessed according to previously published methodology (Langthaler, K. et al. (2024). Fluids Barriers CNS, 21 (11): 1-15). In brief, cells obtained from the Netherlands Cancer Institute were maintained at 37° C. in α-MEM containing 10% FBS, 100 μg/mL penicillin-G, 100 μg/mL streptomycin, 1% non-essential amino acid under culture conditions of 5% CO2 and 95% relative humidity. Transport of test compound (0.5 μM, 0.4% DMSO final concentrations) across the cell monolayer was determined in triplicate on a single test occasion along with controls for low and high permeability (fenoterol and metoprolol, 2 μM) and P-gp efflux (digoxin, 10 μM). Each compound was loaded onto either the apical side (75 μL) or basolateral side (275 μL) with transport buffer (1% BSA in HBSS with 10 mM HEPES (pH 7.4)) on the opposing side of the cells (e.g. 50 μL or 250 μL on the apical or basolateral side). A sample (25 μL) from the donor compartment was taken 30 s after test compound is loaded onto the plate, resulting in a final incubation volume of 50 μL and 250 μL on apical and basolateral sides respectively. At the end of the incubation period, samples (75 μL) were taken from both sides. The donor samples (25 μL) were firstly diluted with transport buffer (50 μL) and then all samples were quenched in acetonitrile (125 μL) containing internal analytical standards. After centrifugation (20 min, 3220 g, 4° C.) the supernatants were analysed by LC-MS/MS. The apparent permeability coefficient (Papp) and efflux ratio (ER) were calculated using the equations below; where dCr/dt is the compound concentration in the receiver chamber as a function of time (μM/s); Vr is the solution volume in the receiver chamber; A is the surface area of the cell monolayer; C0 is the initial concentration in the donor compartment; and Papp A-B and Papp B-A refer to the apparent permeabilities in the respective directions. Compound permeability is classified as low, moderate, or high according to Papp value binning classifications: <1, 1 to 6 or >6×10^−6 cm/s, respectively. The ER is employed to classify compounds as unlikely, possible, or likely P-gp substrates when ER was: <1.5, 1.5 to <2 or >2, respectively.

SMILES	EC50 (human Ox2R)	Emax (human Ox2R)	efflux ratio at 0.5 μM (P-gp (MDR1))	Papp A→B at 0.5 μM (P-gp (MDR1))
CS(=O)(=O)N[C@H]1CC[C@@]2(Cc3cc(c(F)cc3F)-c3cc(F)cc(F)c3OCc3coc2n3)C1 [Example 30, N-[(1′S,14R)-4,6,17,19-tetrafluorospiro[8,12-dioxa-21-azatetracyclo[14.3.1.110,13.02,7]henicosa-1(19),2,4,6,10,13(21),16(20),17-octaene-14,3′-cyclopentane]-1′-yl]methanesulfonamide]	0.077 nM	97%	1.8	90.4 nm/s
Cc1oc2nc1COc1c(F)cccc1-c1cc(ccc1F)C[C@@]21CC[C@H](NS(C)(=O)=O)C1 [Example 25, N-[(1′S,14R)-6,19-difluoro-11-methyl-spiro[8,12-dioxa-21-azatetracyclo[14.3.1.110,13.02,7]henicosa-1(19),2,4,6,10,13(21),16(20),17-octaene-14,3′-cyclopentane]-1′-yl]methanesulfonamide]	0.066 nM	97%	2	82 nm/s
CCS(=O)(=O)N[C@H]1CC[C@@]2(Cc3ccc(F)c(c3)-c3cccc(F)c3OCc3coc2n3)C1 [Example 21, N-[(1′S,14R)-6,19-difluorospiro[8,12-dioxa-21-azatetracyclo[14.3.1.110,13.02,7]henicosa-1(19),2,4,6,10,13(21),16(20),17-octaene-14,3′-cyclopentane]-1′-yl]ethanesulfonamide]	0.083 nM	100%	1.4	98.9 nm/s
O=S(=O)(CF)N[C@H]1CC[C@@]2(Cc3ccc(F)c(c3)-c3cccc(F)c3OCc3coc2n3)C1 [Example 113, N-[(1′S,14R)-6,19-difluorospiro[8,12-dioxa-21-azatetracyclo[14.3.1.110,13.02,7]henicosa-1(20),2,4,6,10,13(21),16,18-octaene-14,3′-cyclopentane]-1′-yl]-1-fluoro-methanesulfonamide]	0.054 nM	95%	1.3	64.7 nm/s
CS(=O)(=O)N[C@H]1CC[C@@]2(Cc3cc(c(F)cc3F)-c3cccc(F)c3OCc3coc2n3)C1 [Example 39, N-[(1′S,14R)-6,17,19-trifluorospiro[8,12-dioxa-21-azatetracyclo[14.3.1.110,13.02,7]henicosa-1(19),2,4,6,10,13(21),16(20),17-octaene-14,3′-cyclopentane]-1′-yl]methanesulfonamide]	0.035 nM	97%	1.1	102 nm/s
CS(=O)(=O)NC1CC[C@@]2(CO[C@H]3CC[C@H](CC3)c3cccc(F)c3OCc3coc2n3)C1 (stereo partly drawn) [Example 100, N-[(1R,1′S,14S,17R)-6-fluorospiro[8,12,16-trioxa-22-azatetracyclo[15.2.2.110,13.02,7]docosa-2,4,6,10,13(22)-pentaene-14,3′-cyclopentane]-1′-yl]methanesulfonamide]	0.037 nM	100%	1.8	102 nm/s

Source: patent US12590106B2, “Spiromacrocyclic orexin 2 receptor agonists” (H. Lundbeck A/S, priority 2023, dated 2026)
